Measurements published in article PMC11172311, “Structural and Interactional Analysis of the Flavonoid Pathway Proteins: Chalcone Synthase, Chalcone Isomerase and Chalcone Isomerase-like Protein” (International Journal of Molecular Sciences, 2024).
pKi: −log10 of the molar value.

Experiments:
[1] = target: T1, PvCHS (chalcone synthase) (Panicum virgatum, UniProt A0A8T0PQ54); experiment: X-ray crystal structure (co-crystallization); assay type: binding
T1 construct: gene PVAP13_8KG261900; full-length with N-terminal His6-tag; residues 8 to 395 of 402 resolved
T1 sequence (A0A8T0PQ54 1-402): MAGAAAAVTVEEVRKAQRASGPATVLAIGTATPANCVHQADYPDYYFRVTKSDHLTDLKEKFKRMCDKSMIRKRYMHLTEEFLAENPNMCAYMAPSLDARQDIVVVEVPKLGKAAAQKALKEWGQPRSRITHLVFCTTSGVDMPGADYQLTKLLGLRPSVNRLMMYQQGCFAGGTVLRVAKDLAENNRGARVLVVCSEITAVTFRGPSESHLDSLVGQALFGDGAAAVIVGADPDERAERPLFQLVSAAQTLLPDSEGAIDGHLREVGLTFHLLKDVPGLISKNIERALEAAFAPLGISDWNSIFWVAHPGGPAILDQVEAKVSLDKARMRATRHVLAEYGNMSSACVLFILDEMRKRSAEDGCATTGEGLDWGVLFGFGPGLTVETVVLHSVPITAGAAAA

[2] = target: T2, PvCHI (chalcone isomerase) (Panicum virgatum, UniProt A0A8T0N7A2); experiment: steady-state kinetics at […] nm; substrate inhibition (Km […], KI […]); assay type: biochemical
T2 construct: gene PVAP13_9KG390224; recombinant, N-terminal 6×-His tag
T2 sequence (A0A8T0N7A2 1-235): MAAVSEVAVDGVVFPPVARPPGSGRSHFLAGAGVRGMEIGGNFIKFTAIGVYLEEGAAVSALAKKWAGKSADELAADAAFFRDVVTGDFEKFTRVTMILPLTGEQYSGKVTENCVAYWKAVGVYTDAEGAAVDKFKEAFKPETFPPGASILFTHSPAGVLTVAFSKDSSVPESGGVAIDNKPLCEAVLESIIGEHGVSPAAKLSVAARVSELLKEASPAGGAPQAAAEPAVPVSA

[3] = target: T2, PvCHI (chalcone isomerase); experiment: steady-state kinetics with naringenin chalcone as substrate, […] liquiritigenin; assay type: biochemical
[4] = target: T3, SbCHI (chalcone isomerase, Bmr30) (Sorghum bicolor, UniProt C5WV22); experiment: X-ray crystal structure (binary complex); assay type: binding
T3 construct: gene SORBI_3001G035600; recombinant SbCHI
T3 sequence (C5WV22 1-231): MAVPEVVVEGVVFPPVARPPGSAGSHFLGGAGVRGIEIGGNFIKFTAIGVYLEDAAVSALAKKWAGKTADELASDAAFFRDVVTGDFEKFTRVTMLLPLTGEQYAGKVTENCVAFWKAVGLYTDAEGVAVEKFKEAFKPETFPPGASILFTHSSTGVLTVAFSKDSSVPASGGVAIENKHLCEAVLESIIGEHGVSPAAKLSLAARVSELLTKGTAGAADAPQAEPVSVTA

[5] = target: T1, PvCHS (chalcone synthase); experiment: X-ray crystal structure (co-crystallization, ternary complex with CoA); assay type: binding

In the case of `CC(C)(COP(=O)(O)OP(=O)(O)OC[C@H]1O[C@@H](n2cnc3c(N)ncnc32)[C@H](O)[C@@H]1OP(=O)(O)O)[C@@H](O)C(=O)NCCC(=O)NCCS` [CoA], the “X-ray crystal structure (co-crystallization)” value [1] was “The electron density corresponding to an extended CoA molecule (Figure 2B) along a continuous tunnel”.
For `O=C(/C=C/c1ccc(O)cc1)c1ccc(O)cc1O` [isoliquiritigenin], the pKi [2] was 4.95.
In the case of `O=C1C[C@@H](c2ccc(O)cc2)Oc2cc(O)ccc21` [liquiritigenin], the pKi [3] was 6.55 and the “X-ray crystal structure (binary complex)” value [4] was “the electron density corresponding to liquiritigenin that had been added to the crystallization buffer was clearly identified”.
`O=C1C[C@@H](c2ccc(O)cc2)Oc2cc(O)cc(O)c21` [naringenin] was tested, and the “X-ray crystal structure (co-crystallization, ternary complex with CoA)” value [5] was “one naringenin molecule was visible in the concave pocket established at the interface between two PvCHS dimers”.
